Test results from patent US9296741B2, “Bromodomain inhibitors” (priority 2012, dated 2016).
Like-named read-outs stand apart in the source and are kept apart here.

Assays:
[1] = Human liver microsome stability assay; assay type: in vitro ADME; settings: human, microsomes, pH 7.4; for half-life at 0.5 μM: both sexes
[2] = test system: breast cancer cell line MX-1; experiment: MX-1 cell line proliferation assay; assay type: cell-based, human; settings: MX-1 cells, 3-day proliferation, Cell Titer Glo, read-out: Cellular proliferation: EC50
[3] = Rat liver microsome stability assay; assay type: in vitro ADME; settings: for half-life at 0.5 μM: 0.25 mg/mL microsomal protein, read-out: Stability in rat liver microsomes (t1/2 in minutes)
[4] = biological target: human BRD4 second bromodomain (BDII_E352-M457) (Homo sapiens (Human), UniProt O60885); experiment: TR-FRET bromodomain binding assay, BRD4 second bromodomain
[5] = biological target: human BRD4 first bromodomain (BDI_K57-E168) (Homo sapiens (Human), UniProt O60885); experiment: TR-FRET bromodomain binding assay, BRD4 first bromodomain
[6] = rat liver microsomes (male Sprague-Dawley), 0.5 μM test compound, pH 7.4, 37° C.

Compound	half-life at 0.5 μM [1] [min]	EC50 ([2]; Homo sapiens, MX1, 72 h) [nM]	Stability in rat liver microsomes (t1/2 in minutes) ([3]; rat liver microsomes (male Sprague-Dawley), 0.5 μM test compound, […] microsomal protein, pH 7.4, 37° C.) [min]	Ki [4] [nM]	Ki [5] [nM]	half-life at 0.5 μM [3, 6] [min]	Stability in human liver microsomes (t1/2 in minutes) [1] [min]	EC50 [2] [nM]	Stability in rat liver microsomes (t1/2 in minutes) ([3]; rat, microsomes, pH 7.4) [min]
Cn1cc(-c2ccccc2Oc2ccccc2)c2cc[nH]c2c1=O [Example 1, 6-methyl-4-(2-phenoxyphenyl)-1,6-dihydro-7H-pyrrolo[2,3-c]pyridin-7-one]	9	137	1	41	136	–	–	–	–
Cn1cc(-c2ccccc2Oc2ccccc2)c2cc(-c3ccccc3)[nH]c2c1=O [Example 88, 6-methyl-4-(2-phenoxyphenyl)-2-phenyl-1,6-dihydro-7H-pyrrolo[2,3-c]pyridin-7-one]	23	> 3000	–	236	635	12	–	–	–
CCOc1ccc(S(C)(=O)=O)cc1-c1cn(C)c(=O)c2[nH]ccc12 [Example 259, 4-[2-ethoxy-5-(methylsulfonyl)phenyl]-6-methyl-1,6-dihydro-7H-pyrrolo[2,3-c]pyridin-7-one]	117	123	–	20.3	24.2	87	–	–	–
Cc1cc(OCC2CC2)c(-c2cn(C)c(=O)c3[nH]ccc23)cc1NS(C)(=O)=O [Example 263, N-[4-(cyclopropylmethoxy)-2-methyl-5-(6-methyl-7-oxo-6,7-dihydro-1H-pyrrolo[2,3-c]pyridin-4-yl)phenyl]methanesulfonamide]	70	76.9	–	16.3	8.8	72	–	–	–
CCS(=O)(=O)c1ccc(OC2CCS(=O)(=O)CC2)c(-c2cn(C)c(=O)c3[nH]ccc23)c1 [Example 265, 4-{2-[(1,1-dioxidotetrahydro-2H-thiopyran-4-yl)oxy]-5-(ethylsulfonyl)phenyl}-6-methyl-1,6-dihydro-7H-pyrrolo[2,3-c]pyridin-7-one]	> 120	> 3000	–	35.6	9	> 120	–	–	–
CN(C)S(=O)(=O)c1cnc(Oc2ccc(F)cc2F)c(-c2cn(C)c(=O)c3[nH]ccc23)c1 [Example 266, 6-(2,4-difluorophenoxy)-N,N-dimethyl-5-(6-methyl-7-oxo-6,7-dihydro-1H-pyrrolo[2,3-c]pyridin-4-yl)pyridine-3-sulfonamide]	8	56.4	–	7.8	21.5	20	–	–	–
CCN(CC)S(=O)(=O)c1cnc(OCC2CC2)c(-c2cn(C)c(=O)c3[nH]ccc23)c1 [Example 272, 6-(cyclopropylmethoxy)-N,N-diethyl-5-(6-methyl-7-oxo-6,7-dihydro-1H-pyrrolo[2,3-c]pyridin-4-yl)pyridine-3-sulfonamide]	2	112	–	11.6	10.2	4	–	–	–
Cn1cc(-c2cc(S(C)(=O)=O)ccc2OC2Cc3ccccc3C2)c2cc[nH]c2c1=O [Example 277, 4-[2-(2,3-dihydro-1H-inden-2-yloxy)-5-(methylsulfonyl)phenyl]-6-methyl-1,6-dihydro-7H-pyrrolo[2,3-c]pyridin-7-one]	4	21.1	–	14.3	6.3	5	–	–	–
Cn1cc(-c2cc(S(C)(=O)=O)ccc2Oc2ccc(F)cc2F)c2cc(COc3cccnc3)[nH]c2c1=O [Example 289, 4-[2-(2,4-difluorophenoxy)-5-(methylsulfonyl)phenyl]-6-methyl-2-[(pyridin-3-yloxy)methyl]-1,6-dihydro-7H-pyrrolo[2,3-c]pyridin-7-one]	–	> 3000	–	310	12.4	–	–	–	–
CCS(=O)(=O)Cc1ccc(Oc2ccc(F)cc2F)c(-c2cn(C)c(=O)c3[nH]ccc23)c1 [Example 297, 4-{2-(2,4-difluorophenoxy)-5-[(ethylsulfonyl)methyl]phenyl}-6-methyl-1,6-dihydro-7H-pyrrolo[2,3-c]pyridin-7-one]	83	18.6	–	5.2	14.2	43	–	–	–
Cn1cc(-c2cc(S(=O)(=O)NCc3cccnc3)ccc2OCC2CC2)c2cc[nH]c2c1=O [Example 333, 4-(cyclopropylmethoxy)-3-(6-methyl-7-oxo-6,7-dihydro-1H-pyrrolo[2,3-c]pyridin-4-yl)-N-(pyridin-3-ylmethyl)benzenesulfonamide]	0.8	74	–	32.7	36.9	3	–	–	–
CCS(=O)(=O)N(CCOC)c1ccc(Oc2ccc(F)cc2F)c(-c2cn(C)c(=O)c3[nH]ccc23)c1 [Example 341, N-[4-(2,4-difluorophenoxy)-3-(6-methyl-7-oxo-6,7-dihydro-1H-pyrrolo[2,3-c]pyridin-4-yl)phenyl]-N-(2-methoxyethyl)ethanesulfonamide]	–	622	–	81.7	295	–	–	–	–
CCS(=O)(=O)N(Cc1ccccn1)c1ccc(Oc2ccc(F)cc2F)c(-c2cn(C)c(=O)c3[nH]ccc23)c1 [Example 342, N-[4-(2,4-difluorophenoxy)-3-(6-methyl-7-oxo-6,7-dihydro-1H-pyrrolo[2,3-c]pyridin-4-yl)phenyl]-N-(pyridin-2-ylmethyl)ethanesulfonamide]	2	510	–	11.5	71.9	5	–	–	–
CCS(=O)(=O)N(CCN1CCCC1=O)c1ccc(Oc2ccc(F)cc2F)c(-c2cn(C)c(=O)c3[nH]ccc23)c1 [Example 344, N-[4-(2,4-difluorophenoxy)-3-(6-methyl-7-oxo-6,7-dihydro-1H-pyrrolo[2,3-c]pyridin-4-yl)phenyl]-N-[2-(2-oxopyrrolidin-1-yl)ethyl]ethanesulfonamide]	–	636	–	136	430	–	–	–	–

Compounds with a lower Ki [4], results first:

half-life at 0.5 μM [1] [min]	EC50 ([2]; Homo sapiens, MX1, 72 h) [nM]	Stability in rat liver microsomes (t1/2 in minutes) ([3]; rat liver microsomes (male Sprague-Dawley), 0.5 μM test compound, […] microsomal protein, pH 7.4, 37° C.) [min]	Ki [4] [nM]	Ki [5] [nM]	half-life at 0.5 μM [3, 6] [min]	Stability in human liver microsomes (t1/2 in minutes) [1] [min]	EC50 [2] [nM]	Stability in rat liver microsomes (t1/2 in minutes) ([3]; rat, microsomes, pH 7.4) [min]	Compound
> 120	33.2	–	3.4	0.74	> 120	–	–	–	CCS(=O)(=O)Nc1ccc(OC2CCOC2)c(-c2cn(C)c(=O)c3[nH]ccc23)c1 (stereo not shown) [Example 66, N-[3-(6-methyl-7-oxo-6,7-dihydro-1H-pyrrolo[2,3-c]pyridin-4-yl)-4-(tetrahydrofuran-3-yloxy)phenyl]ethanesulfonamide]
–	6.9	–	1.5	2.2	–	–	–	–	CC1CCC(Oc2ccc(S(C)(=O)=O)cc2-c2cn(C)c(=O)c3[nH]ccc23)CC1 (stereo not shown) [Example 233, 6-methyl-4-{2-[(4-methylcyclohexyl)oxy]-5-(methylsulfonyl)phenyl}-1,6-dihydro-7H-pyrrolo[2,3-c]pyridin-7-one]
–	15.9	–	3.4	3	–	–	–	–	Cn1cc(-c2cc(S(C)(=O)=O)ccc2OCC2CCC2)c2cc[nH]c2c1=O [Example 234, 4-[2-(cyclobutylmethoxy)-5-(methylsulfonyl)phenyl]-6-methyl-1,6-dihydro-7H-pyrrolo[2,3-c]pyridin-7-one]
–	10.1	–	2.4	2.8	–	–	–	–	CNS(=O)(=O)c1ccc(NCC2CC2)c(-c2cn(C)c(=O)c3[nH]ccc23)c1 [Example 239, 4-[(cyclopropylmethyl)amino]-N-methyl-3-(6-methyl-7-oxo-6,7-dihydro-1H-pyrrolo[2,3-c]pyridin-4-yl)benzenesulfonamide]
14	17.8	–	1.2	1.2	6	–	–	–	CCS(=O)(=O)c1ccc(OC2CCSCC2)c(-c2cn(C)c(=O)c3[nH]ccc23)c1 [Example 264, 4-[5-(ethylsulfonyl)-2-(tetrahydro-2H-thiopyran-4-yloxy)phenyl]-6-methyl-1,6-dihydro-7H-pyrrolo[2,3-c]pyridin-7-one]
–	–	–	0.57	0.76	–	10	6.2	26	CCS(=O)(=O)c1ccc(O[C@H]2CC[C@@](C)(OC)CC2)c(-c2cn(C)c(=O)c3[nH]ccc23)c1 [Example 268, 4-(5-(ethylsulfonyl)-2-(cis-4-methoxy-4-methylcyclohexyloxy)phenyl)-6-methyl-1H-pyrrolo[2,3-c]pyridin-7(6H)-one]
1	36	–	5	80.1	2	–	–	–	Cn1cc(-c2cc(S(=O)(=O)N3CCCC3)ccc2Oc2ccc(F)cc2F)c2cc[nH]c2c1=O [Example 299, 4-[2-(2,4-difluorophenoxy)-5-(pyrrolidin-1-ylsulfonyl)phenyl]-6-methyl-1,6-dihydro-7H-pyrrolo[2,3-c]pyridin-7-one]
2	224	–	4.8	42.7	7	–	–	–	CCS(=O)(=O)N(CC1CC1)c1ccc(Oc2ccc(F)cc2F)c(-c2cn(C)c(=O)c3[nH]ccc23)c1 [Example 343, N-(cyclopropylmethyl)-N-[4-(2,4-difluorophenoxy)-3-(6-methyl-7-oxo-6,7-dihydro-1H-pyrrolo[2,3-c]pyridin-4-yl)phenyl]ethanesulfonamide]
4	83.9	–	4	15.6	6	–	–	–	Cn1cc(-c2cc(S(=O)(=O)Nc3ccc(F)cc3)ccc2OCC2CC2)c2cc[nH]c2c1=O [Example 347, 4-(cyclopropylmethoxy)-N-(4-fluorophenyl)-3-(6-methyl-7-oxo-6,7-dihydro-1H-pyrrolo[2,3-c]pyridin-4-yl)benzenesulfonamide]
